Data on 10 compounds can be found in publication PMC5962959 (ChemMedChem, 2017).

Test [1] deals with T1, full-length human TSSK2 (Homo sapiens, UniProt Q96PF2).
T1 sequence (Q96PF2 1-358): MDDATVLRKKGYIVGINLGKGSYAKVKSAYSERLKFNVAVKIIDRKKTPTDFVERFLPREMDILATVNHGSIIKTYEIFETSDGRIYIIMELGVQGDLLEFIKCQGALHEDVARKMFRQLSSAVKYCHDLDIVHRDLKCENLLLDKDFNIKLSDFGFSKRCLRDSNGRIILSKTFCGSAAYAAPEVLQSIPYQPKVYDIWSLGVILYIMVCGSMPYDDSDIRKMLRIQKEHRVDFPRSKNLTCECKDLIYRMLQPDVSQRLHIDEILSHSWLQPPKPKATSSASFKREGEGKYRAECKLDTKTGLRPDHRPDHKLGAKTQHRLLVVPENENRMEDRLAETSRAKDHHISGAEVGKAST
Description: Mobility shift assay: TSSK2 phosphorylation of 5-FAM-GS peptide. Format: biochemical. The note with it: for TSSK2 inhibitor confirmed in concentration-response experiments after HTS: HTS at 10 μM, cherry-picked compounds from DMSO stocks; for fold reduction in TSSK2 activity: relative to compound 18.

Test [2] deals with insulin-like growth factor 1 receptor (IGF-1R). The test can be described thus: Reported IGF-1R inhibition. The test is classed as biochemical.
In test [3] the test system is kinases (PKIS profiling panel). Conditions: at 100 nM; ref profiling data provided by GSK supporting the PKIS collections; cited from earlier work.
Test [4] deals with GRK1. Description: Reported GRK inhibition. The note with it: GRK data ref 10d. Format: biochemical.
The target in test [5] is focal adhesion kinase (FAK). The note with it: patent literature, Supplementary Table 2; ref 13p; cited from earlier work.
Test [6] has as its system insulin-like growth factor 1 receptor (IGF-1R). Conditions: cited from earlier work.
For test [7], the target named is TSSK6 (Homo sapiens, UniProt Q9BXA6). The test can be described thus: TSSK family member inhibition, TSSK6. The test is classed as biochemical.
Test [8] deals with T2, TSSK1 (Homo sapiens, UniProt Q9BXA7).
T2 sequence (Q9BXA7 1-367): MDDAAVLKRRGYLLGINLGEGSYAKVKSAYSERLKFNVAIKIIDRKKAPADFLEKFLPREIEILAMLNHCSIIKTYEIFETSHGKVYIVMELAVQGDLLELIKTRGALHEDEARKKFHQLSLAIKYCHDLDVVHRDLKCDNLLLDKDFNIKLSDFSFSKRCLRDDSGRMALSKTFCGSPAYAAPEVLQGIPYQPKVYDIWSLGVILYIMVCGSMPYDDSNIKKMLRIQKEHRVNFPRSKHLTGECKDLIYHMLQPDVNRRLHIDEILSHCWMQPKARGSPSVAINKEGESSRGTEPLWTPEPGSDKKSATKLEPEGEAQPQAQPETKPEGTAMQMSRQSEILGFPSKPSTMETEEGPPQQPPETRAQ
Description: TSSK family member inhibition, TSSK1. Format: biochemical.

Test [9] concerns 369 wild-type kinases. The test can be described thus: Kinome profiling at Reaction Biology Corp. The test is classed as biochemical. The note with it: 100 nM.
For test [10], the system named is TSSK3. Description: TSSK family member inhibition, TSSK3. The test is classed as biochemical.
The test system of test [11] is LRRK2. The note with it: ref 13c; cited from earlier work.
Test [12] relates to FLT3. The note with it: ref 13b; cited from earlier work.
The test system of test [13] is anaplastic lymphoma kinase (ALK). The note with it: cited from earlier work.
Test [14] has as its system Tie2. Conditions: ref 13b; cited from earlier work.
Test [15] concerns CLK2. Conditions: read-out: CLK2 IC50; Supplementary Table 2; ref 13a; cited from earlier work.
Test [16] deals with insulin receptor. Conditions: read-out: insulin receptor IC50; Supplementary Table 2; ref 13a; cited from earlier work.
Test [17] deals with LTK. Conditions: read-out: LTK IC50; Supplementary Table 2; ref 13a; cited from earlier work.

TSSK6, sequence (Q9BXA6 whole entry): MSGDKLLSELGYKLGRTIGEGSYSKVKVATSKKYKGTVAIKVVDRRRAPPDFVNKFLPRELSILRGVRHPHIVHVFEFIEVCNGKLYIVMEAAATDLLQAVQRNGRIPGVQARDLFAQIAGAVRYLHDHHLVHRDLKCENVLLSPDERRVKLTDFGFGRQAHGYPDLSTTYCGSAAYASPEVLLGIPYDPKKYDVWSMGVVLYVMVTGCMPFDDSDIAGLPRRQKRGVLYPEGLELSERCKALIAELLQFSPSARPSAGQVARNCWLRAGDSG

Consider `O=c1[nH]c2ccc(Cl)cc2c(N[C@@H]2CN3CCC2CC3)c1-c1nc2ccccc2[nH]1` [CHIR-124], for which, in test [1], the “TSSK2 inhibitor confirmed in concentration-response experiments after HTS” value (“TSSK2 inhibitor confirmed” for short) was “active”.

With `COc1cc2c(cc1Nc1nc(Nc3ccsc3C(N)=O)c3cc[nH]c3n1)N(C(=O)CN(C)C)CCC2(C)C` [Compound 10], in test [2], the “fold more potent inhibitors of IGF-1 than of TSSK2” value was not below 100 fold. Moreover, in test [3], the “number of kinases inhibited by > 50%” value is 15 – 20. In addition, the “fold selective for TSSK2 over GRK1” value in test [4] is more than 5 fold.

`CNS(=O)(=O)c1ccccc1Nc1nc(Nc2ccc(N3CCN(C)CC3)cc2OC)ncc1Br` [Compound 17]: the “FAK IC50” value in [5] was “low nanomolar”. In test [6] (compared with FAK, ref 13p), the “potency for inhibiting IGF-1R” value is reported as “substantially less potent”.

With `CNS(=O)(=O)c1ccccc1Nc1nc(Nc2ccc(N3CCN(C)CC3)cc2OC)ncc1Cl` [Compound 18], the “FAK IC50” value in test [5] is “low nanomolar”.

For `CNS(=O)(=O)c1ccccc1Nc1nc(Nc2ccc(C3CCN(C)CC3)cc2OC)ncc1Cl` [Compound 19, 2-[[5-chloro-2-[2-methoxy-4-(1-methylpiperidin-4-yl)anilino]pyrimidin-4-yl]amino]-N-methylbenzenesulfonamide], in [7], the “activity at TSSK6” value was “almost inactive” and the “fold selective for TSSK1 over TSSK6” value is ~100,000 fold. Further, in test [8], the “fold more potent at inhibiting TSSK1 than TSSK2” value is reported as more than 40 fold and the “rank order potency at TSSK isoforms” value was “TSSK1 > TSSK2 > TSSK3 > TSSK6”. Further, in [9], the “number of 369 kinases inhibited to a greater extent than TSSK2” value was determined as 62. Moreover, the “fold more potent at TSSK1 than TSSK3” value in [10] amounted to 800 fold. Also, the “fold reduction in TSSK2 activity” value in test [1] is listed as less than 2 fold.

Consider `COc1cc(N2CCC(N3CCN(C)CC3)CC2)ccc1Nc1ncc(Cl)c(Nc2ccccc2S(=O)(=O)C(C)C)n1` [Compound 22], for which, in test [11], the “activity at LRRK2” value is listed as “low nanomolar”. Further, the “fold reduction in TSSK2 activity” value in test [1] is ~ 2 fold. For the same compound, the “activity at FLT3” value in test [12] is given as “low nanomolar”. In addition, the “activity at ALK” value in test [13] was “low nanomolar”. Further, the “activity at Tie2” value in test [14] is on record as “low nanomolar”.

For the compound `COc1cc(N2CCC(O)CC2)ccc1Nc1nc(Nc2ccccc2S(=O)(=O)C(C)C)c2[nH]cnc2n1` [Compound 35], the IC50 (as a rule, the concentration needed to halve the response being measured) was 20 to 40 nM in test [15]; 20 to 40 nM in test [16]; 20 to 40 nM in test [17]; 20 to 40 nM in test [6] (read-out: IGF-1R IC50, Supplementary Table 2, ref 13a).

Consider `CCn1c(-c2nonc2N)nc2c(C#CC(C)(C)O)nc(O[C@@H](CN)c3ccccc3)cc21` [GSK1007102B], for which the “TSSK2 inhibitor confirmed” value in [1] was “active”.

On to `CC(=O)NCC(=O)N1[C@@H]2CC[C@H]1c1ccc(Nc3ncc(C(F)(F)F)c(NC4CCC4)n3)cc12` [PF-03814735], for which the “TSSK2 inhibitor confirmed” value in [1] is recorded as “active”.

As to `COc1ccc([C@@H]2CC(=O)c3c(O)cc(O[C@@H]4O[C@H](CO[C@@H]5O[C@@H](C)[C@H](O)[C@@H](O)[C@H]5O)[C@@H](O)[C@H](O)[C@H]4O)cc3O2)cc1O` [hesperidin], the “TSSK2 inhibitor confirmed” value in test [1] is given as “active”.
